In patent EP2199292A1, “7-azaindirubins, 7'-azaindirubins, 7-7'-diazaindirubin and the corresponding 3'-oxime ether derivates: production thereof, their production and use as a medicament” (Technische Universität Kaiserslautern, priority 2008, dated 2010):
Read-outs that look alike come from different tables or passages of the source.

Assays:
[1] = tested on: murine C6 glioblastoma cells; settings: compared with parent compound 5-methylindirubin; WO 03/070703; cited from earlier work
human cancer cell lines = test: Antiproliferative activity against human cancer cell lines, compared with indirubin; type: cell-based; settings: as compared to the parent molecule
Description: (§1) The antiproliferative activity was determined using the Sulforhodamin B assay (SRB assay) as reported previously (Vatter et al. 2005, Int. J. Clin. Pharmacal.Ther. 43, 607). Table 1: Inhibition of tumor cell proliferation, SRB assay.

HT29 = test: Inhibition of tumor cell proliferation, Sulforhodamin B assay (SRB assay), HT29; type: cell-based; settings: Homo sapiens, HT-29
Description: as §1

MCF7 = test: Inhibition of tumor cell proliferation, Sulforhodamin B assay (SRB assay), MCF7; type: cell-based; settings: Homo sapiens
Description: as §1

## Cc1cc2c(cc1O)NC(=O)C2=C1Nc2ccccc2C1=O
[1]
  inhibition of murine C6 glioblastoma cells: as effective as the parent compound

## O=C1Nc2ccccc2C1=C1Nc2ncccc2C1=O [E843, 7'-Azaindirubin]
Human cancer cell lines
  antiproliferative activity: markedly augmented

## O=C1Nc2ncccc2C1=C1Nc2ncccc2C1=O [E864, 7,7'-Diazaindirubin]
HT29; HT29, SRB assay, read-out: Inhibition of cell proliferation IC50
  IC50: 5 nM
HT29; HT29 colon tumor cells, IC50 values ranging down to, read-out: inhibition of proliferation IC50
  IC50: ≥ 2 nM
MCF7; MCF7, MCF-7 breast cancer cells, IC50 values ranging down to, read-out: inhibition of proliferation IC50
  IC50: ≥ 2 nM
MCF7; MCF7, SRB assay, read-out: Inhibition of cell proliferation IC50
  IC50: 7 nM

## O=C1Nc2ncccc2/C1=C1/Nc2ccccc2C1=O [Example 12, 7-Azaindirubin]
Human cancer cell lines
  antiproliferative activity: markedly augmented
